These molecules were tested against HDAC 1 (Homo sapiens, UniProt Q13547) (assay: HDAC 1 inhibition assay with about 3-hour enzyme/compound preincubation (fluorophore/quencher peptide substrate)). Conditions: 3-hour preincubation of enzyme and compound at room temperature; read-out: HDAC 1 inhibitory activity (IC50 [μM]) (3-hour preincubation).
Type: biochemical
Experimental: HDAC inhibitory activity of the compound of Example 1 was measured by two types of assays in which HDAC 1 and 6 were used as a target molecule. The first assay was carried out without preincubation after addition of the enzyme. The test compound was suspended in and titrated in DMSO. It was then spotted into a 384-well test plate. The enzyme, HDAC 1 or 6, was diluted in assay buffer containing 25 mM Tris-HCl (pH 8.0), 137 mM NaCl, 2.7 mM KCl, and 0.01% Tween-20 and added to the pre-spotted compound. The peptide substrate containing a fluorophore/quencher pair was diluted in the same assay buffer and added to the compound/enzyme mix initiating the reaction. The reaction incubated at room temperature for about 45 minutes. A concentrated developer solution was diluted in the assay buffer, and added to the reaction. The reaction was incubated at room temperature for about 15 minutes and relative fluorescence was read on an instrument reader.
The second assay is similar to the first assay described above, except that preincubation is carried out for about 3 hours after the enzyme is introduced. The test compound was suspended in, and titrated in DMSO. It was then spotted into a 384-well test plate. The enzyme, HDAC 1 or 6, was diluted in the same assay buffer as used in the previous assay and added to the pre-spotted compound. The enzyme/compound mix was incubated at room temperature for about 3 hours. The peptide substrate containing a fluorophore/quencher pair was diluted in the assay buffer and added to the compound/enzyme mix initiating the reaction. The reaction incubated at room temperature for 45 minutes. A concentrated developer solution was diluted in the assay buffer, and added to the reaction. The reaction was incubated at room temperature for about 15 minutes and relative fluorescence was read on an instrument reader.

Sequence of HDAC 1 (Q13547 whole entry, species assumed): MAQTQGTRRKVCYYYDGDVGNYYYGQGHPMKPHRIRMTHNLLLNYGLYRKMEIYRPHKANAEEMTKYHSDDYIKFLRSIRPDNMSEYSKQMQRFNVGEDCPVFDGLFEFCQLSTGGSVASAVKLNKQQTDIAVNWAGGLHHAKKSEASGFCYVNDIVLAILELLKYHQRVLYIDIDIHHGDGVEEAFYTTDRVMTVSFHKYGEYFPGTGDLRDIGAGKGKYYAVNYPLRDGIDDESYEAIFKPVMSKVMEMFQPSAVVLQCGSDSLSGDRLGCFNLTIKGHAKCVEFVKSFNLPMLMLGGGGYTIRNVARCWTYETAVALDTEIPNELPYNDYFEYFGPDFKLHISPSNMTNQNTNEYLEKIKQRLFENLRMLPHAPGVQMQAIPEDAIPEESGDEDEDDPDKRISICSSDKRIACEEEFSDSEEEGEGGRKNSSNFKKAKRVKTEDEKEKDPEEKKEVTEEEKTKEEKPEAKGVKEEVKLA

Row | Structure (SMILES) | IC50 [µM]
1 | CC(=O)N1CCc2nc(C3(c4ccc(C(=O)Nc5cc(-c6cccs6)ccc5N)cc4)CCOCC3)sc2C1 [Example 28, 4-(4-(5-acetyl-4,5,6,7-tetrahydrothiazolo[5,4-c]pyridin-2-yl)tetrahydropyran-4-yl)-N-(2-amino-5-(thiophen-2-yl)phenyl)benzamide] | 0.0026
2 | Cc1nc2ccccn2c1-c1csc(C2(c3ccc(C(=O)Nc4ccccc4N)cc3)CCOCC2)n1 [Example 9, N-(2-Amino-phenyl)-4-{4-[4-(2-methyl-imidazo[1,2-a]pyridin-3-yl)-thiazol-2-yl]-tetrahydro-pyran-4-yl}-benzamide] | 0.003
3 | Nc1ccccc1NC(=O)c1ccc(C2(c3nc4c(s3)CCCC4)CC2)cc1 [Example 11, N-(2-amino-phenyl)-4-[1-(4,5,6,7-tetrahydro-benzothiazol-2-yl)-cyclopropyl]-benzamide] | 0.069
4 | CN1CCc2nc(C3(c4ccc(C(=O)Nc5ccccc5N)cc4)CCOCC3)sc2C1 [Example 29, N-(2-aminophenyl)-4-(4-(5-methyl-4,5,6,7-tetrahydrothiazolo[5,4-c]pyridin-2-yl)tetrahydropyran-4-yl)benzamide] | 0.032
5 | CCOC(=O)N1CCc2nc(C3(c4ccc(C(=O)Nc5ccccc5N)cc4)CC3)sc2C1 [Example 12] | 0.016
6 | Nc1ccccc1NC(=O)c1ccc(C2(c3nc(-c4cccnc4)cs3)CCOCC2)cc1 [Example 8, N-(2-Amino-phenyl)-4-[4-(4-pyridin-3-yl-thiazol-2-yl)-tetrahydro-pyran-4-yl]-benzamide] | 0.037
7 | COCCOCc1csc(C2(c3ccc(C(=O)Nc4cc(-c5cccs5)ccc4N)cc3)CCOCC2)n1 [Example 32, N-(2-amino-5-(thiophen-2-yl)phenyl)-4-(4-(4-((2-methoxyethoxy)methyl)thiazol-2-yl)tetrahydropyran-4-yl)benzamide] | 0.0025
8 | Nc1ccccc1NC(=O)c1ccc(C2(c3nc(-c4ccc(Cl)nc4)cs3)CCOCC2)cc1 [Example 18, N-(2-aminophenyl)-4-(4-(4-(6-chloropyridin-3-yl)thiazol-2-yl)tetrahydropyran-4-yl)benzamide] | 0.0139
9 | CC(C)NC(=O)c1csc(C2(c3ccc(C(=O)Nc4ccccc4N)cc3)CC2)n1 [Example 10, 2-(1-(4-(2-aminophenylcarbamoyl)phenyl)cyclopropyl)-N-isopropylthiazole-4-carboxamide] | 0.279
10 | CN1CCc2nc(C3(c4ccc(C(=O)Nc5cc(-c6cccs6)ccc5N)cc4)CCOCC3)sc2C1 [Example 21, N-(2-amino-5-(thiophen-2-yl)phenyl)-4-(4-(5-methyl-4,5,6,7-tetrahydrothiazolo[5,4-c]pyridin-2-yl)tetrahydropyran-4-yl)benzamide] | 0.006
11 | Nc1ccc(F)cc1NC(=O)c1ccc(C2(c3nc(-c4cccnc4)cs3)CCOCC2)cc1 [Example 23, N-(2-amino-5-fluorophenyl)-4-(4-(4-(pyridin-3-yl)thiazol-2-yl)tetrahydropyran-4-yl)benzamide] | 0.032
12 | COCCOc1ccc(-c2csc(C3(c4ccc(C(=O)Nc5ccccc5N)cc4)CCOCC3)n2)cn1 [Example 24, N-(2-aminophenyl)-4-(4-(4-(6-(2-methoxyethoxy)pyridin-3-yl)thiazol-2-yl)tetrahydropyran-4-yl)benzamide] | 0.013
13 | Cc1csc(C2(c3ccc(C(=O)Nc4ccccc4N)cc3)CC2)n1 [Example 16, N-(2-aminophenyl)-4-(1-(4-methylthiazol-2-yl)cyclopropyl)benzamide] | 0.0988
14 | Nc1ccccc1NC(=O)c1ccc(C2(c3nc(-c4cccnc4)cs3)CC2)cc1 [Example 5, N-(2-Amino-phenyl)-4-[1-(4-pyridin-3-yl-thiazol-2-yl)-cyclopropyl]-benzamide] | 0.012
15 | CC(C)[C@H](N)C(=O)N1CCc2nc(C3(c4ccc(C(=O)Nc5ccccc5N)cc4)CC3)sc2C1 [Example 17, (S)-4-(1-(5-(2-amino-3-methylbutanoyl)-4,5,6,7-tetrahydrothiazolo[5,4-c]pyridin-2-yl)cyclopropyl)-N-(2-aminophenyl)benzamide] | 0.0982
16 | CCOc1csc(C2(c3ccc(C(=O)Nc4cc(-c5cccs5)ccc4N)cc3)CCOCC2)n1 [Example 37, N-(2-amino-5-(thiophen-2-yl)phenyl)-4-(4-(4-ethoxythiazol-2-yl)tetrahydropyran-4-yl)benzamide] | 0.00388
17 | Nc1ccc(-c2cccs2)cc1NC(=O)c1ccc(C2(c3nc(-c4cccnc4)cs3)CCOCC2)cc1 [Example 22, N-(2-amino-5-(thiophen-2-yl)phenyl)-4-(4-(4-(pyridin-3-yl)thiazol-2-yl)tetrahydropyran-4-yl)benzamide] | 0.014

Continued, values first:

Row | IC50 [µM] | Structure (SMILES)
18 | 0.00209 | Cc1nc(C2(c3ccc(C(=O)Nc4cc(-c5ccc(F)cc5)ccc4N)cc3)CCOCC2)sc1C(C)O (stereo not shown) [Example 61, N-(4-amino-4′-fluorobiphenyl-3-yl)-4-(4-(5-(1-hydroxyethyl)-4-methylthiazol-2-yl)tetrahydropyran-4-yl)benzamide]
19 | 0.00311 | Nc1ccc(-c2cccs2)cc1NC(=O)c1ccc(C2(c3nnn[nH]3)CCOCC2)cc1 [Example 38, 4-(4-(1H-tetrazol-5-yl)tetrahydropyran-4-yl)-N-(2-amino-5-(thiophen-2-yl)phenyl)benzamide]
20 | 0.0444 | Nc1ccccc1NC(=O)c1ccc(C2(c3nc(-c4cnccn4)cs3)CC2)cc1 [Example 55, N-(2-aminophenyl)-4-(1-(4-(pyrazin-2-yl)thiazol-2-yl)cyclopropyl)benzamide]
21 | 0.00231 | Nc1ccc(-c2ccc(F)cc2)cc1NC(=O)c1ccc(C2(c3ccccn3)CCOCC2)cc1 [Example 59, N-(4-amino-4′-fluorobiphenyl-3-yl)-4-(4-(pyridin-2-yl)tetrahydropyran-4-yl)benzamide]
22 | 0.00792 | Cc1ccc(-c2ccc(N)c(NC(=O)c3ccc(C4(c5nccs5)CC4)cc3)c2)s1 [Example 52, N-(2-amino-5-(5-methylthiophen-2-yl)phenyl)-4-(1-(thiazol-2-yl)cyclopropyl)benzamide]
23 | 0.0979 | O=C(NO)c1ccc(C2(c3nc(-c4cnccn4)cs3)CCOCC2)cc1 [Example 53, N-hydroxy-4-(4-(4-(pyrazin-2-yl)thiazol-2-yl)tetrahydropyran-4-yl)benzamide]
24 | 0.0351 | O=C(NO)c1ccc(C2(c3nc(-c4cccnc4)cs3)CCOCC2)cc1 [Example 42, N-hydroxy-4-(4-(4-(pyridin-3-yl)thiazol-2-yl)tetrahydropyran-4-yl)benzamide]
25 | 0.00428 | Cc1cnc(C2(c3ccc(C(=O)Nc4cc(-c5ccc(F)cc5)ccc4N)cc3)CCOCC2)s1 [Example 63, N-(4-amino-4′-fluorobiphenyl-3-yl)-4-(4-(5-methylthiazol-2-yl)tetrahydropyran-4-yl)benzamide]
26 | 0.00262 | Nc1ccc(-c2cccs2)cc1NC(=O)c1ccc(C2(c3nccs3)CC2)cc1 [Example 50, N-(2-amino-5-(thiophen-2-yl)phenyl)-4-(1-(thiazol-2-yl)cyclopropyl)benzamide]
27 | 0.00576 | CN1CCN(c2ccc(-c3csc(C4(c5ccc(C(=O)Nc6ccccc6N)cc5)CCOCC4)n3)cc2)CC1 [Example 47, N-(2-aminophenyl)-4-(4-(4-(4-(4-methylpiperazin-1-yl)phenyl)thiazol-2-yl)tetrahydropyran-4-yl)benzamide]
28 | 0.00333 | Nc1ccc(-c2ccc(F)cc2)cc1NC(=O)c1ccc(C2(c3nnn[nH]3)CCOCC2)cc1 [Example 39, 4-(4-(1H-tetrazol-5-yl)tetrahydropyran-4-yl)-N-(4-amino-4′-fluorobiphenyl-3-yl)benzamide]
29 | 0.00774 | Nc1ccc(F)cc1NC(=O)c1ccc(C2(c3nc(-c4cnccn4)cs3)CCOCC2)cc1 [Example 57, N-(2-amino-5-fluorophenyl)-4-(4-(4-(pyrazin-2-yl)thiazol-2-yl)tetrahydropyran-4-yl)benzamide]
30 | 0.00639 | CCOc1csc(C2(c3ccc(C(=O)Nc4cc(-c5ccc(F)cc5)ccc4N)cc3)CCOCC2)n1 [Example 40, N-(4-amino-4′-fluorobiphenyl-3-yl)-4-(4-(4-ethoxythiazol-2-yl)tetrahydropyran-4-yl)benzamide]
31 | 0.00606 | Nc1ccc(-c2ccc(Cl)s2)cc1NC(=O)c1ccc(C2(c3nccs3)CCOCC2)cc1 [Example 45, N-(2-amino-5-(5-chlorothiophen-2-yl)phenyl)-4-(4-(thiazol-2-yl)tetrahydropyran-4-yl)benzamide]
32 | 0.00325 | CN1CCc2nc(C3(c4ccc(C(=O)Nc5cc(-c6ccc(F)cc6)ccc5N)cc4)CC3)sc2C1 [Example 56, N-(4-amino-4′-fluorobiphenyl-3-yl)-4-(1-(5-methyl-4,5,6,7-tetrahydrothiazolo[5,4-c]pyridine-2-yl)cyclopropyl)benzamide]
33 | 0.0039 | Nc1ccc(-c2cccs2)cc1NC(=O)c1ccc(C2(c3ncc(-c4cccnc4)s3)CCOCC2)cc1 [Example 51, N-(2-amino-5-(thiophen-2-yl)phenyl)-4-(4-(5-(pyridin-3-yl)thiazol-2-yl)tetrahydropyran-4-yl)benzamide]
34 | 0.00294 | Nc1ccc(-c2ccc(F)cc2)cc1NC(=O)c1ccc(C2(c3nccs3)CC2)cc1 [Example 48, N-(4-amino-4′-fluorobiphenyl-3-yl)-4-(1-(thiazol-2-yl)cyclopropyl)benzamide]

From US8198299B2, “Cycloalkylidene and heterocycloalkylidene inhibitor compounds” (Gilead Sciences, Inc., priority 2008, dated 2012)
